Measurements taken from US20150141435A1, “2-PYRIDONE ANTIMICROBIAL COMPOSITIONS” (Emergent BioSolutions, priority 2010, published 2015).
Where a name gives a salt, the structure may show the parent alone. Read-outs that look alike come from different tables or passages of the source.

Columns and labels:
Format in all cases: cell-based
S. aureus ATCC 25923 = assay: MIC, CLSI broth microdilution (Table 1); conditions: Staphylococcus aureus
[1] = system: S. aureus ATCC 43300 (MRSA, FQ-S); assay: MIC, CLSI broth microdilution (Table 1); conditions: Staphylococcus aureus, read-out: MIC S. aureus ATCC 43300 (MRSA, FQ-S)
[2] = system: S. aureus BAA-1720 (MRSA, FQ-R); assay: MIC, CLSI broth microdilution (Table 1); conditions: Staphylococcus aureus, read-out: MIC S. aureus BAA-1720 (MRSA, FQ-R)
E. faecium ATCC 19434 = assay: MIC, CLSI broth microdilution (Table 1); conditions: Enterococcus faecium
E. faecalis ATCC 29212 = assay: MIC, CLSI broth microdilution (Table 1); conditions: Enterococcus faecalis
S. pneumonia ATCC 49619 = assay: MIC, CLSI broth microdilution (Table 1); conditions: Streptococcus pneumoniae
E. coli ATCC 25922 = assay: MIC, CLSI broth microdilution (Table 2); conditions: Escherichia coli
A. baumannii ATCC 19606 = assay: MIC, CLSI broth microdilution (Table 2); conditions: Acinetobacter baumannii
P. aeruginosa ATCC 27853 = assay: MIC, CLSI broth microdilution (Table 2); conditions: Pseudomonas aeruginosa
K. pneumoniae ATCC 33495 = assay: MIC, CLSI broth microdilution (Table 2); conditions: Klebsiella pneumoniae
H. influenzae ATCC 49247 = assay: MIC, CLSI broth microdilution (Table 2); conditions: Haemophilus influenzae
[3] = system: S. maltophilia ATCC 17677; assay: MIC, CLSI broth microdilution (Table 2); conditions: Stenotrophomonas maltophilia
[4] = system: Bacillus anthracis Ames strain; assay: microbe, parasite or virus in culture
[5] = system: Brucella abortus ATCC 23448; assay: microbe, parasite or virus in culture; conditions: ATCC23448
[6] = system: Burkholderia mallei ATCC 23344; assay: microbe, parasite or virus in culture; conditions: ATCC23344
[7] = system: Burkholderia pseudomallei ATCC 23343; assay: microbe, parasite or virus in culture; conditions: ATCC23343
[8] = system: Francisella tularensis Schu S4; assay: microbe, parasite or virus in culture; conditions: SCHUS4
Yersinia pestis C092 = assay: microbe, parasite or virus in culture
[9] = ATCC25923, read-out: MIC S. aureus ATCC 25923
[10] = ATCC19434, read-out: MIC E. faecium ATCC 19434
[11] = ATCC29212, read-out: MIC E. faecalis ATCC 29212
[12] = ATCC49619, read-out: MIC S. pneumonia ATCC 49619
[13] = ATCC25922, read-out: MIC E. coli ATCC 25922
[14] = ATCC19606, read-out: MIC A. baumannii B. ATCC 19606
[15] = ATCC27853, read-out: MIC P. aeruginosa ATCC 27853
[16] = ATCC33495, read-out: MIC K. pneumoniae ATCC 33495
[17] = ATCC49247, read-out: MIC H. influenzae ATCC 49247
[18] = ATCC17677, read-out: MIC S. maltophilia ATCC 17677
[19] = ATCC25923, Gram positive, MHB, 37° C., 16-20 hours, read-out: MIC S. aureus ATCC 25923
[20] = Gram positive, MHB, 37° C., 16-20 hours
[21] = ATCC19434, Gram positive, MHB, 37° C., 16-20 hours, read-out: MIC E. faecium ATCC 19434
[22] = ATCC29212, Gram positive, MHB, 37° C., 16-20 hours, read-out: MIC E. faecalis ATCC 29212
[23] = ATCC25922, Gram negative, MHB, 37° C., 16-20 hours, read-out: MIC E. coli ATCC 25922
[24] = ATCC27853, Gram negative, MHB, 37° C., 16-20 hours, read-out: MIC P. aeruginosa ATCC 27853
[25] = ATCC49247, Gram negative, MHB, 37° C., 16-20 hours, read-out: MIC H. influenzae ATCC 49247
[26] = ATCC33495, Gram negative, MHB, 37° C., 16-20 hours, read-out: MIC K. pneumoniae ATCC 33495
[27] = ATCC17677, Gram negative, MHB, 37° C., 16-20 hours, read-out: MIC S. maltophilia ATCC 17677

Compound | MIC (S. aureus ATCC 25923; [9]) | MIC [1] | MIC (S. pneumonia ATCC 49619; [12]) | MIC (A. baumannii ATCC 19606; [14]) | MIC (K. pneumoniae ATCC 33495; [16]) | MIC [3, 18] | MIC [4] | MIC [5] | MIC [6] | MIC [7] | MIC [8] | MIC (Yersinia pestis C092) | MIC (S. aureus ATCC 25923; [19]) | MIC [1, 20] | MIC [2, 20] | MIC (E. faecium ATCC 19434; [21]) | MIC (E. faecalis ATCC 29212; [22]) | MIC (E. coli ATCC 25922; [23]) | MIC (P. aeruginosa ATCC 27853; [24]) | MIC (H. influenzae ATCC 49247; [25]) | other results
Cc1c(-c2cc(F)c(N)cc2F)ccn2c(=O)c(C(=O)O)cc(C3CC3)c12 [Example 28 K salt, 8-(4-amino-2,5-difluoro-phenyl)-1-cyclopropyl-9-methyl-4-oxo-4H-quinolizine-3-carboxylic acid] | ≤ 0.004 µg/mL | ≤ 0.004 µg/mL | 0.032 µg/mL | 0.125 µg/mL | 0.25 to 0.5 µg/mL | 0.125 µg/mL | 0.004 µg/mL | 0.031 to 0.063 µg/mL | 0.125 to 0.25 µg/mL | 0.125 µg/mL | 0.008 µg/mL | 0.016 to 0.031 µg/mL | – | – | – | – | – | – | – | – | MIC [2]: 0.064 µg/mL; MIC (E. faecium ATCC 19434; [10]): 0.25 µg/mL; MIC (E. faecalis ATCC 29212; [11]): 0.016 µg/mL; MIC (E. coli ATCC 25922; [13]): 0.032 to 0.064 µg/mL; MIC (P. aeruginosa ATCC 27853; [15]): 2 µg/mL; MIC (H. influenzae ATCC 49247; [17]): ≤ 0.004 µg/mL
Cc1c(-c2ccc(O)cc2)ccn2c(=O)c(C(=O)O)cc(C3CC3)c12 [Example 46 K salt, 1-cyclopropyl-8-(4-hydroxy-phenyl)-9-methyl-4-oxo-4H-quinolizine-3-carboxylic acid] | ≤ 0.004 µg/mL | ≤ 0.004 µg/mL | 0.032 µg/mL | 0.064 µg/mL | 0.064 µg/mL | 0.125 µg/mL | 0.004 µg/mL | 0.031 µg/mL | 0.063 µg/mL | 0.063 µg/mL | 0.016 µg/mL | 0.008 to 0.016 µg/mL | – | – | – | – | – | – | – | – | MIC [2]: 0.125 µg/mL; MIC (E. faecium ATCC 19434; [10]): 0.25 µg/mL; MIC (E. faecalis ATCC 29212; [11]): 0.016 µg/mL; MIC (E. coli ATCC 25922; [13]): 0.032 µg/mL; MIC (P. aeruginosa ATCC 27853; [15]): 1 to 2 µg/mL; MIC (H. influenzae ATCC 49247; [17]): ≤ 0.004 µg/mL
Cc1c(-c2ccc(F)c(N)c2)ccn2c(=O)c(C(=O)O)cc(C3CC3)c12 [Example 8 K salt, 8-(3-amino-4-fluoro-phenyl)-1-cyclopropyl-9-methyl-4-oxo-4H-quinolizine-3-carboxylic acid] | – | – | 0.125 µg/mL | 0.064 to 0.125 µg/mL | 0.125 µg/mL | 0.125 µg/mL | 0.008 µg/mL | 0.063 µg/mL | 0.25 µg/mL | 0.125 µg/mL | 0.031 µg/mL | 0.031 µg/mL | 0.008 µg/mL | 0.008 µg/mL | 0.25 µg/mL | 0.5 µg/mL | 0.032 µg/mL | 0.032 to 0.064 µg/mL | 2 µg/mL | 0.064 µg/mL | –
Cc1c(-c2ccc(Cl)cc2)ccn2c(=O)c(C(=O)O)cc(C3CC3)c12 [Example 45 K salt, 1-cyclopropyl-8-(4-chloro-phenyl)-9-methyl-4-oxo-4H-quinolizine-3-carboxylic acid] | – | – | – | – | – | – | 0.016 µg/mL | 0.031 µg/mL | 0.063 to 0.125 µg/mL | 0.063 to 0.125 µg/mL | 0.008 to 0.016 µg/mL | 0.031 µg/mL | 0.016 to 0.032 µg/mL | 0.016 µg/mL | 0.5 µg/mL | 0.5 to 1 µg/mL | 0.064 µg/mL | 0.25 µg/mL | 2 µg/mL | 0.016 µg/mL | MIC (S. pneumonia ATCC 49619; ATCC49619, Gram positive, MHB, 37° C., 16-20 hours, read-out: MIC S. pneumonia ATCC 49619): 0.25 µg/mL; MIC (A. baumannii ATCC 19606; ATCC19606, Gram negative, MHB, 37° C., 16-20 hours, read-out: MIC A. baumannii B. ATCC 19606): 0.25 µg/mL; MIC (K. pneumoniae ATCC 33495; [26]): 0.5 to 1 µg/mL; MIC [3, 27]: 0.25 µg/mL
Cc1c(-c2ccc(CO)cc2)ccn2c(=O)c(C(=O)O)cc(C3CC3)c12 [Example 48 K salt, 1-cyclopropyl-8-(4-hydroxy-methyl-phenyl)-9-methyl-4-oxo-4H-quinolizine-3-carboxylic acid] | – | – | 0.125 µg/mL | 0.125 µg/mL | – | – | 0.008 µg/mL | 0.031 µg/mL | 0.125 µg/mL | 0.125 µg/mL | 0.016 µg/mL | 0.031 µg/mL | 0.008 to 0.016 µg/mL | 0.008 µg/mL | 0.5 µg/mL | 1 µg/mL | 0.032 to 0.064 µg/mL | 0.064 µg/mL | 2 µg/mL | ≤ 0.004 µg/mL | MIC (K. pneumoniae ATCC 33495; [26]): 0.25 µg/mL; MIC [3, 27]: 0.25 µg/mL
